Data reported in patent publication US20220033407A1, “N-(pyridin-2-ylsulfonyl)cyclopropanecarboxamide Derivatives and their Use in the Treatment of Disease” (NOVARTIS AG, priority 2018, published 2022).

Columns and labels:
delF508-CFTR-HRP = biological target: T1, delF508-CFTR-HRP (Homo sapiens, UniProt P13569, DEL508-508); assay: Measurement of delF508-CFTR-HRP surface expression in CFBE41o- cells (HRP luminescence); assay type: cell-based; conditions: for EC50: mean of at least two replicates; for Emax: CFBE41o-, read-out: DelF508-CFTR-HRP Amax %;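 as to DelF508-CFTR-HRP Amax %: percent efficacy relative to a reference CFTR corrector compound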
T1 construct: expressed in transfected cells
T1 sequence (P13569 with tags, fused parts or gaps DEL508-508): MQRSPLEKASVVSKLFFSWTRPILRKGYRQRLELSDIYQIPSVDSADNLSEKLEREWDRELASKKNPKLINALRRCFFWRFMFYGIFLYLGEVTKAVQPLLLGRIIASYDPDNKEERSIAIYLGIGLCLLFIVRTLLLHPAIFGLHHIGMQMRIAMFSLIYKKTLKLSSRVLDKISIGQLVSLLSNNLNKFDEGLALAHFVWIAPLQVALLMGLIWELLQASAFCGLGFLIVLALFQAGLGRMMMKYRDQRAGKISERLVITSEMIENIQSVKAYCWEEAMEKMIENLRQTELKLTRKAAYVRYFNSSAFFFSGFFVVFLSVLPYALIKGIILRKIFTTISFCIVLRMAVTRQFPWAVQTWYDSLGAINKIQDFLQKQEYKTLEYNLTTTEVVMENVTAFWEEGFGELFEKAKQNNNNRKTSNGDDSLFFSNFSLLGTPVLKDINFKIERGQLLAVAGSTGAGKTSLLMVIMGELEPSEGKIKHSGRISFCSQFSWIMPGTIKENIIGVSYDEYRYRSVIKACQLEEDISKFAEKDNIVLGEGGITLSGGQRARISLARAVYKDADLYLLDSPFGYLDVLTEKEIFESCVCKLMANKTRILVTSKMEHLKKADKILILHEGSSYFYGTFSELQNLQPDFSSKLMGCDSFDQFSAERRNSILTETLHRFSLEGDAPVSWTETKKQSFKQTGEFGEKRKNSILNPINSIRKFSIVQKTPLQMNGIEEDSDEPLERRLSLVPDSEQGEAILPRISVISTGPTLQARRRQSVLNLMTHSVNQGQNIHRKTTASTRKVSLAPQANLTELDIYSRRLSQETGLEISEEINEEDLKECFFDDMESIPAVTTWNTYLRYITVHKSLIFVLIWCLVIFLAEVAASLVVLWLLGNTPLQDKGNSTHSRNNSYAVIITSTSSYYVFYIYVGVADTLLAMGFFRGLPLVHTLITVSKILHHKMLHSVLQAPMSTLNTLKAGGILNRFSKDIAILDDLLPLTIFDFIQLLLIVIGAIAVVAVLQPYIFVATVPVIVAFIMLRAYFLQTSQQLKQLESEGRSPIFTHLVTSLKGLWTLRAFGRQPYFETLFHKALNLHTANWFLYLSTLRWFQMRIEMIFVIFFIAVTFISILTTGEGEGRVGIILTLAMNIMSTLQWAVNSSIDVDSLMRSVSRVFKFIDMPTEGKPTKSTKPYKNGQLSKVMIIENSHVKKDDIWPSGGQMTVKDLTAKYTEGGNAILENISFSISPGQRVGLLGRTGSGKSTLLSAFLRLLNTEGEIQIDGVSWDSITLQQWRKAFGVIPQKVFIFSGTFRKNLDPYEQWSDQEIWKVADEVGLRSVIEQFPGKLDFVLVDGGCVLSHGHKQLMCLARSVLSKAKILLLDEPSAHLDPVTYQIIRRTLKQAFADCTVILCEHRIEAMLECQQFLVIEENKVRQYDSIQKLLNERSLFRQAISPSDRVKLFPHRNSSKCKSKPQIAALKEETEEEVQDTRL
Outline: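 EC50 derived by logistic regression of triplicate surface-HRP luminescence, plate-normalized to the lowest-concentration median. Doxycycline (500 ng/mL, 48 h) induced delF508-CFTR-HRP in CFBE41o- cells; compounds then applied 24 h at 37° C, 10 μM top, 3-fold over 10 points.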

delF508-CFTR = biological target: T2, delF508-CFTR (Homo sapiens, UniProt P13569, DEL508-508); assay: delF508-CFTR functional activity in primary human bronchial epithelial cells (HBECs), Multi-Transepithelial Clamp Circuit (MTECC-24) assay, equivalent short circuit current; assay type: cell-based; conditions: primary CF HBECs; for MTECC24 CFHBEC-Amax %: relative to reference combination 2 μM 3-(6-(1-(2,2-difluorobenzo[d][1,3]dioxol-5-yl)cyclopropane-1-carboxamido)-3-methylpyridin-2-yl)benzoic acid (24 h) + 0.5 μM N-(2,4-di-tert-butyl-5-hydroxyphenyl)-4-oxo-1,4-dihydroquinoline-3-carboxamide; for EC50: test compound added 24 h before assay, potentiator (S)-3-amino-6-methoxy-N-(3,3,3-trifluoro-2-hydroxy-2-methylpropyl)-5-(trifluoromethyl)picolinamide present at assay, mean of at least two replicates, read-out: MTECC24 CFHBEC-EC50
T2 construct: functional activity of the CFTR channel (Chloride ion transport) in patient derived primary human bronchial epithelial cells; host or cells: patient-derived primary human bronchial epithelial cells (HBECs), delF508-CFTR
T2 sequence (P13569 with tags, fused parts or gaps DEL508-508): as above
From the text: Measurement of delF508-CFTR Functional Activity in Primary Human Bronchial Epithelial Cells (HBECs) Using Multi-Transepithelial Clamp Circuit (MTECC-24) Assay
This assay measures the functional activity of the CFTR channel (Chloride ion transport) in patient derived primary human bronchial epithelial cells with forskolin activation and in the presence of the CFTR corrector wherein the corrector is a compound of the invention and the potentiator is (S)-3-amino-6-methoxy-N-(3,3,3-trifluoro-2-hydroxy-2-methylpropyl)-5-(trifluoromethyl)picolinamide.
Primary human delF508-CFTR bronchial epithelial cells were purchased from Asterand and cultured according to previously established methods (Fulcher et al. (2005) Methods Mol Med 107: 183-206). Briefly, vendor supplied cells were rapidly defrosted and added to a T175 flask in 50 mL growth media (Lonza BEBM media with Lonza BEGM singlequots). Media was replaced after 24 h and then cells were fed every other day until cells were 80-90% confluent, at which point cells were cryopreserved. These P1 vials were thawed at 37° C. as needed and added to T175 flasks in 50 mL growth media at 5×10^5 cells/flask. Media was replaced after 24 h, and then cells were fed every other day until 80-90% confluent. Cells were lifted with 5 mL Accutase at 37° C. for 5 minutes, centrifuged at 1000 rpms for 5 min (300 g), and resuspended in differentiation media (50% BEBM in DMEM, BEGM singlequots, all trans retinoic acid (5×10·8M)). Cells were then counted and cell suspension was added to collagen coated inserts at 3×10^4 cells/insert in 0.15 mL with 0.5 mL differentiation media on the basolateral side.
Apical and basolateral media were replaced on alternate days, and following day 7 (or when confluent plus 2 days), air liquid interface was established for approximately two weeks by removal of apical media. One day prior to use on the MTECC24 system (EP-Devices, EP Design, Belgium), 0.15 mL of warmed (37° C.) PBS was added to the apical surface of the cultures and returned to humidifier (37° C., 5% CO2 incubator) for 30 min before aspirating the apical surface to remove any mucus.
Compound treatments were then prepared. Compound dilutions, typically a 10 point concentration response with 1 in 3 dilution steps, were made in 100% DMSO before dilution 1 in 1000 into differentiation medium with a final DMSO concentration of 0.1% or 0.2% for the study. Compound containing medium was then transferred into the wells of a 24 well plate at 0.5 mL per well and warmed for 30 min in a 37° C. incubator prior to transferring washed inserts into the compound containing plates. Cells were incubated in compound containing medium (basolateral only) for 24 h prior to measurement in the MTECC24 system.
Following 24 hr treatment, compound dilutions were prepared again, diluted 1 in 1000 into 37° C. assay medium (F-12 Coon's modified, 20 mM HEPES pH7.4 with TRIS Base, No FCS or bicarbonate). Cells which were treated for 24 h with test compound were then transferred into plates containing 0.75 mL compound treatment in assay medium (basolateral) and 0.25 mL of the compound containing assay medium was added to the apical surface. The plates were then transferred to the heated plate compartments of the MTECC24 system for 45 min prior to measurements (this can also be done in a non-CO2 37° C. humidified incubator). Basolateral temperature should not exceed 36.5° C. and apical temperature should be approximately 35.5° C.
Modulators were added sequentially as follows while the MTECC24 instrument recorded the equivalent short circuit current (Ieq)
Prior to dilution into F-12 medium the stocks are as follows: Amiloride stock is 10 mM in H2O
Forskolin Stock is 10 mM in 100% DMSO
(S)-3-amino-6-methoxy-N-(3,3,3-trifluoro-2-hydroxy-2-methylpropyl)-5-(trifluoromethyl)picolinamide is 0.5 mM stock in 100% DMSO INH-172 (4-[[4-Oxo-2-thioxo-3-[3-trifluoromethyl)phenyl]-5-thiazolidinylidene]methyl]benzoic acid) stock is 30 mM in 100% DMSO […]

SMILES	DelF508-CFTR-HRP Amax % (delF508-CFTR-HRP) [%]	EC50 (delF508-CFTR-HRP) [nM]	MTECC24 CFHBEC-Amax % (delF508-CFTR) [%]	EC50 (delF508-CFTR) [nM]	Emax (delF508-CFTR-HRP) [%]
Cc1ccc(C2CCC3(CCCC3)OC2)c(OC2(C(=O)NS(=O)(=O)c3cccc(N4CCC(O)(c5ccc(Cl)cc5)CC4)n3)CC2)c1 (single isomer, unassigned) [Example 11-3-1, N-((6-(4-(4-chlorophenyl)-4-hydroxypiperidin-1-yl)pyridin-2-yl)sulfonyl)-1-(5-methyl-2-(6-oxaspiro[4.5]decan-8-yl)phenoxy)cyclopropane-1-carboxamide]	380.3	680	100.3	117	
Cc1ccc(C2CCC3(CCCC3)OC2)c(OC2(C(=O)NS(=O)(=O)c3cccc(N4CCC(O)(c5ccc(Cl)cc5)CC4)n3)CC2)c1 (single isomer, unassigned) [Example 11-3-2, N-((6-(4-(4-chlorophenyl)-4-hydroxypiperidin-1-yl)pyridin-2-yl)sulfonyl)-1-(5-methyl-2-(6-oxaspiro[4.5]decan-8-yl)phenoxy)cyclopropane-1-carboxamide]	481.9	440	79.0	79	
Cc1ccc(C2CCC3(CCC3)OC2)c(OC2(C(=O)NS(=O)(=O)c3cccc(N4CCC(C)(O)CC4)n3)CC2)c1 (single isomer, unassigned) [Example 11-4-1, N-((6-(4-hydroxy-4-methylpiperidin-1-yl)pyridin-2-yl)sulfonyl)-1-(5-methyl-2-(5-oxaspiro[3.5]nonan-7-yl)phenoxy)cyclopropane-1-carboxamide]	460.1	2260	60.8	1080	
Cc1ccc(C2CCCCC2)c(OC2(C(=O)NS(=O)(=O)c3cccc(N)n3)CC2)c1 [Example 1-1, N-((6-Aminopyridin-2-yl)sulfonyl)-1-(2-cyclohexyl-5-methylphenoxy)cyclopropane-1-carboxamide]		2010	91	15	421
Cc1ccc(-c2cc(F)cc(OCC(C)C)c2)c(OC2(C(=O)NS(=O)(=O)c3cccc(N)n3)CC2)c1 [Example 1-2, N-((6-Aminopyridin-2-yl)sulfonyl)-1-((3′-fluoro-5′-isobutoxy-4-methyl-[1,1′-biphenyl]-2-yl)oxy)cyclopropane-1-carboxamide]		2440	89	45	136
Cc1ccc(C2CCC(F)(F)CC2)c(OC2(C(=O)NS(=O)(=O)c3cccc(N)n3)CC2)c1 [Example 1-4, N-((6-Aminopyridin-2-yl)sulfonyl)-1-(2-(4,4-difluorocyclohexyl)-5-methylphenoxy)cyclopropane-1-carboxamide]		3970	59	437	260
Cc1ccc(C2CCCC(F)(F)C2)c(OC2(C(=O)NS(=O)(=O)c3cccc(N)n3)CC2)c1 (stereo not drawn) [Example 1-5, N-((6-Aminopyridin-2-yl)sulfonyl)-1-(2-(3,3-difluorocyclohexyl)-5-methylphenoxy)cyclopropane-1-carboxamide]		3960	94	312	179
Cc1ccc(C2CCCCCC2)c(OC2(C(=O)NS(=O)(=O)c3cccc(N)n3)CC2)c1 [Example 1-6, N-((6-Aminopyridin-2-yl)sulfonyl)-1-(2-cycloheptyl-5-methylphenoxy)cyclopropane-1-carboxamide]		1310	87	2	765
Cc1ccc(C2CCCCC2)c(OC2(C(=O)NS(=O)(=O)c3nc(N)ccc3F)CC2)c1 [Example 1-7, N-((6-Amino-3-fluoropyridin-2-yl)sulfony)-1-(2-cyclohexyl-5-methylphenoxy)cyclopropane-1-carboxamide]		2830	54	40	109
Cc1ccc(C2(C(F)(F)F)CC2)c(OC2(C(=O)NS(=O)(=O)c3cccc(N)n3)CCCC2)c1 [Example 1-8, N-((6-Aminopyridin-2-yl)sulfonyl)-1-(5-methyl-2-(1-(trifluoromethyl)cyclopropyl)phenoxy)cyclopentane-1-carboxamide]		2380	46	6	165

Continued, values first:

DelF508-CFTR-HRP Amax % (delF508-CFTR-HRP) [%]	EC50 (delF508-CFTR-HRP) [nM]	MTECC24 CFHBEC-Amax % (delF508-CFTR) [%]	EC50 (delF508-CFTR) [nM]	Emax (delF508-CFTR-HRP) [%]	SMILES
	2360	97	5	668	Cc1ccc(C2CCCCC2)c(OC2(C(=O)NS(=O)(=O)c3cccc(N4CC(O)C4)n3)CC2)c1 [Example 2-1, 1-(2-Cyclohexyl-5-methylphenoxy)-N-((6-(3-hydroxyazetidin-1-yl)pyridin-2-yl)sulfonyl)cyclopropanecarboxamide]
	1330	59	2	561	Cc1ccc(C2CCCCC2)c(OC2(C(=O)NS(=O)(=O)c3cccc(N4CCOC[C@@H]4C)n3)CC2)c1 [Example 2-2, (S)-1-(2-Cyclohexyl-5-methylphenoxy)-N-((6-(3-methylmorpholino)pyridin-2-yl)sulfonyl)cyclopropanecarboxamide]
	460	79	5	337	COC(=O)C1(C)CCN(c2cccc(S(=O)(=O)NC(=O)C3(Oc4cc(C)ccc4C4CCCCC4)CC3)n2)CC1 [Example 2-3, Methyl 1-(6-(N-(1-(2-cyclohexyl-5-methylphenoxy)cyclopropanecarbonyl)sulfamoyl)pyridin-2-yl)-4-methylpiperidine-4-carboxylate]
	1290	91	10	808	COC(=O)C1CCN(c2cccc(S(=O)(=O)NC(=O)C3(Oc4cc(C)ccc4C4CCCCC4)CC3)n2)CC1 [Example 2-4, Methyl 1-(6-(N-(1-(2-cyclohexyl-5-methylphenoxy)cyclopropane-1-carbonyl)sulfamoyl)pyridin-2-yl)piperidine-4-carboxylate]
	3020	66	7	213	Cc1ccc(C2CCCCC2)c(OC2(C(=O)NS(=O)(=O)c3cccc(N4CCC(C)(C(=O)O)CC4)n3)CC2)c1 [Example 2-5, 1-(6-(N-(1-(2-cyclohexyl-5-methylphenoxy)cyclopropanecarbonyl)sulfamoyl)pyridin-2-yl)-4-methylpiperidine-4-carboxylic acid]
